Our source for the IC50 values is patent publication EP4644396A1 (Visionpharma (Nantong) Co., Ltd, priority 2022, dated 2024).

The target in one test is T1, human TLR8 (Homo sapiens, UniProt Q9NR97).
T1 construct: expressed in transfected cells
T1 sequence (Q9NR97 27-1041): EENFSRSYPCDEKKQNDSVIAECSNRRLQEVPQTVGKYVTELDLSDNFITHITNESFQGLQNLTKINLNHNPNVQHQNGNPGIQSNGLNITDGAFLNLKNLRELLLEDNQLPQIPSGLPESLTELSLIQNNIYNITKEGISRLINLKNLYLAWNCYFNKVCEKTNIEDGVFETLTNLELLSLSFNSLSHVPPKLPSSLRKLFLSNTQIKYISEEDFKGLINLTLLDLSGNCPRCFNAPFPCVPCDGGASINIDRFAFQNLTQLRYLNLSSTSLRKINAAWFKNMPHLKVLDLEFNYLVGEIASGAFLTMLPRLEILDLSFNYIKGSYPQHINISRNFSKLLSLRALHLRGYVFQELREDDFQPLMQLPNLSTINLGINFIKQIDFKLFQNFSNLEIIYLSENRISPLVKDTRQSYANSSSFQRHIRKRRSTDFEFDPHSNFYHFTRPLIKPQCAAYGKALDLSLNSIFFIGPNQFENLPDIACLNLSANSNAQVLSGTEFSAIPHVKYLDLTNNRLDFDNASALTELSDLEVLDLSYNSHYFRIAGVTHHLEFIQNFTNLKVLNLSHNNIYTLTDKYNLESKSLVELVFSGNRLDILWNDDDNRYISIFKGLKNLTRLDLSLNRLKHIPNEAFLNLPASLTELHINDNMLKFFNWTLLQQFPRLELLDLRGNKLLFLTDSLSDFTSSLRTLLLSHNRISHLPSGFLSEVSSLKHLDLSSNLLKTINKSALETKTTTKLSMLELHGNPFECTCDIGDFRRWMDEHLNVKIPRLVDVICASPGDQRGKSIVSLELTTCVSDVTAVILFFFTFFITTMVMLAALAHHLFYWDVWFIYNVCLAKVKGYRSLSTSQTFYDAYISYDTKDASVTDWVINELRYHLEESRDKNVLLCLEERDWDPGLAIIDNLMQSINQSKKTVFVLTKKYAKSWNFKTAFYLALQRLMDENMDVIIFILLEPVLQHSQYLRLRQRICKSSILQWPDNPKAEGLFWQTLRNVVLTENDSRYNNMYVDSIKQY
Put plainly: HEK-Blue hTLR8 SEAP reporter gene inhibition assay. Format: cell-based. The settings on record: hTLR8 HEK-Blue cells, TLR8 ligand 10 µM, 20 hours, SEAP by Quanti-blue; class symbols; read-out: HEK-Blue hTLR8 IC50. The protocol:
(§1) HEK-Blue cells with stable expression of human TLR7 or TLR8 were used in the evaluation of inhibitory activity of compounds in the present invention against TLR7 or TLR8, by using its ability to induce the SEAP reporting gene under the control of the fusion of IFN-β minimum promoters into five NF-κB and ap-1 binding sites, as follows: hTLR7 HEK-Blue cells (Invivogen, 80, 000 cells per well) or hTLR8 HEK-Blue cells (60, 000 cells per well) were added to a 96-well cell culture plate. A solution of the testing compounds were added to each well, with the final concentration of tested compounds in the medium ranged from 0.001 to 36 µM and the culture was incubated for 15 minutes. M5049 was used as positive controls in the testing.
(§2) Then a TLR7 ligand (Gardiquimod, purchased from MedChemExpress, with final concentration of ligand in cell culture medium kept at 10 µM) or a TLR8 ligand (purchased from MedChemExpress with final concentration in cell culture media at 10 µM) and the culture was incubated for 20 hours. According to the manufacturer's instructions, a HEK-Blue reagent Quanti-blue (Invivogen) was used to detect the SEAP levels in cell cultures. The half […] concentration or IC50 was calculated by using GraphPad Prism. […] Table 1: Activities of examples in this invention to hTLR7/8 in HEK-Blue Cells
Background: Reporter assays use an easily measured gene product as a stand-in for the process of interest.
Consider `C[C@@H]1CN(c2ccc(C#N)n3ncc(F)c23)Cc2c3c(nn21)CN(CC(=O)N1C[C@H](C)N[C@@H](C)C1)[C@@H](C)C3` [Example I-145, 4-((4R,9S)-8-(2-((3S,5S)-3,5-dimethylpiperazin-1-yl)-2-oxoethyl)-4,9-dimethyl-3,4,7,8,9,10-hexahydropyrido[3',4':3,4]pyrazolo[1,5-a]pyrazin-2(1H)-yl)-3-fluoropyrazolo[1,5-a]pyridine-7-carbonitrile], for which the half-inhibitory concentration (IC50) (commonly the concentration at which inhibition is half-maximal) was < 100 nM.

For the molecule `C[C@@H]1CN(c2ccc(C#N)n3ncc(F)c23)Cc2c3c(nn21)CC(N)CCC3` (stereo partly drawn) [Example I-214, 4-((4R)-8-amino-4-methyl-1,3,4,7,8,9,10,11-octahydro-2H-cyclohepta[3,4]pyrazolo[1,5-a]pyrazin-2-yl)-3-fluoropyrazolo[1,5-a]pyridine-7-carbonitrile], the IC50 was < 100 nM.

The next test concerns the target T2, human TLR7 (Homo sapiens, UniProt Q9NYK1).
T2 sequence (Q9NYK1 27-1049): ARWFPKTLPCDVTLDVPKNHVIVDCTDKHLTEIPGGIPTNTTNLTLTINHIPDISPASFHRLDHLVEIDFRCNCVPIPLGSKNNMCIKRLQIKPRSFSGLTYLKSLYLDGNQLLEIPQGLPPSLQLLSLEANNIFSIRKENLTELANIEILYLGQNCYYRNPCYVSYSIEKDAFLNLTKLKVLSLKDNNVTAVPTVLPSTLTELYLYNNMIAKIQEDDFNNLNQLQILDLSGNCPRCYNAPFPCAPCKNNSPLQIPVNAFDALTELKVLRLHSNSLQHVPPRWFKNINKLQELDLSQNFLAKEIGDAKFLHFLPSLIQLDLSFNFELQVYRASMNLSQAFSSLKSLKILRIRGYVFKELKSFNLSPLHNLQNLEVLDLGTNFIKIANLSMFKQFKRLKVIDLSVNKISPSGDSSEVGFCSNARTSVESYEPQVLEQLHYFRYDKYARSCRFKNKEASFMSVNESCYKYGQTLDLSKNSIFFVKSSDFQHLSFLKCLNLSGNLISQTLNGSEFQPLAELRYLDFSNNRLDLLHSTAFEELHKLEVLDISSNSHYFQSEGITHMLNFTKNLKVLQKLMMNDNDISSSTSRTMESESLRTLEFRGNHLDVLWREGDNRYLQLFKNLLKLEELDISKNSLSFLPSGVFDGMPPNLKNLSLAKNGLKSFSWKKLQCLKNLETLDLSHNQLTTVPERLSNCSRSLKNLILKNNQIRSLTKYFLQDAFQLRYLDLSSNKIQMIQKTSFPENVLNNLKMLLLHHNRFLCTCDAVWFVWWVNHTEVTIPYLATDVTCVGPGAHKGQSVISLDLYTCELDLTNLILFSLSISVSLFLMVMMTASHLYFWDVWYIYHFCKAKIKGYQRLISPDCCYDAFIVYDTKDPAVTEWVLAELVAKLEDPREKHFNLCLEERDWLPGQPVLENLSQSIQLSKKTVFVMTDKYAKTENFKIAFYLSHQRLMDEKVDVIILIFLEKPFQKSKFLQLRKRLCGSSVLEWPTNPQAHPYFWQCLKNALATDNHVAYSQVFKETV
Put plainly: HEK-Blue hTLR7 SEAP reporter gene inhibition assay. The class given is cell-based. The settings on record: HEK-Blue hTLR7 IC50 (µM). The protocol: as §1, §2
Take `C[C@@H]1CN(c2ccc(C#N)n3ncc(F)c23)Cc2c3c(nn21)CCN(Cc1cn[nH]c1)C3` [Example I-54, (R)-4-(2-((1H-Pyrazole-4-yl)methyl) -7-methyl-1,3,4,7,8,10-hexahydropyridine[4 ', 3 ': 3, 4]pyrazole [1,5-a]pyrazine-9 (2H) -yl) -3-fluoropyrazole [1,5-a] pyridine-7-nitrile]: the IC50 is < 0.05 µM.

Consider `C[C@@H]1CN(c2ccc(C#N)n3ncc(F)c23)Cc2c3c(nn21)CCN(CC(F)F)C3` [Example I-56, (R)-4-(2-(2,2-difluoroethyl) -7-methyl-1,3,4,7,8, 10-hexahydropyridine [4 ', 3 ': 3, 4]pyrazole [1,5-a]pyrazine-9 (2H) -yl) -3-fluoropyrazole [1,5-a] pyridine-7-nitrile], for which the half-inhibitory concentration (IC50) was > 0.05 µM.

Turning to `C[C@@H]1CN(c2ccc(C#N)n3ncc(F)c23)Cc2c3c(nn21)CCN(Cc1ccn[nH]1)C3` [Example I-62], the IC50 was > 0.05 µM.

The test is the same for the next values; noted with them: hTLR7 HEK-Blue cells, TLR7 ligand Gardiquimod 10 µM, 20 hours, SEAP by Quanti-blue; class symbols; read-out: HEK-Blue hTLR7 IC50.
In the case of `C[C@@H]1CN(c2ccc(C#N)n3ncc(F)c23)Cc2c3c(nn21)CCC(N)C3` (stereo partly drawn) [Example I-9, 4-((4R)-9-amino-4-methyl-3,4,7,8,9,10-hexahydropyrazino[1,2-b]indazol-2(1H)-yl)-3-fluoropyrazolo[1,5-a]pyridine-7-carbonitrile], the IC50 was > 0.05 µM.

As to `CC(C)N1CCc2c(nn3c2CN(c2ccc(C#N)n4ncc(F)c24)C[C@H]3C)C1` [Example I-23, (R)-3-Fluoro-4-(8-isopropyl-4-methyl-3,4,7,8,9,10-hexahydropyrido[3',4':3,4]pyrazolo[1,5-a]pyrazin-2(1H)-yl)pyrazolo[1,5-a]pyridine-7-carbonitrile], the half-maximal inhibitory concentration (IC50) is > 0.05 µM.

For `CCN1CCc2nn3c(c2C1)CN(c1ccc(C#N)n2ncc(F)c12)C[C@H]3C` [Example I-25, (R)-4-(2-ethyl-7-methyl-1,3,4,7,8,10-hexahydropyrido[4',3':3,4]pyrazolo[1,5-a]pyrazin-9(2H)-yl)-3-fluoropyrazolo[1,5-a]pyridine-7-carbonitrile], the IC50 was < 0.05 µM.

As to `C[C@@H]1CN(c2ccc(C#N)n3ncc(F)c23)Cc2c3c(nn21)CCN(C1CCC1)C3` [Example I-49, (R)-4-(2-cyclobutyl-7-methyl-1,3,4,7,8,10-hexahydropyrido[4',3':3,4]pyrazolo[1,5-a]pyrazin-9(2H)-yl)-3-fluoropyrazolo[1,5-a]pyridine-7-carbonitrile], the IC50 was > 0.05 µM.

With `CC(C)N1CCc2nn3c(c2C1)CN(c1ccc(C#N)n2ncc(F)c12)C[C@H]3C` [Example I-53, (R)-3-Fluoro-4-(2-isopropyl-7-methyl-1,3,4,7,8,10-hexahydropyrido[4',3':3,4]pyrazolo[1,5-a]pyrazin-9(2H)-yl)pyrazolo[1,5-a]pyridine-7-carbonitrile], the half-inhibitory concentration (IC50) was < 0.05 µM.

Consider `C[C@@H]1CN(c2ccc(C#N)n3ncc(F)c23)Cc2c3c(nn21)CCN(Cc1cnn(C)c1)C3` [Example I-67, (R)-3-Fluoro-4-(7-methyl-2-((1-methyl-1H-pyrazol-4-yl)methyl)-1,3,4,7,8,10-hexahydropyrido[4',3':3,4]pyrazolo[1,5-a]pyrazin-9(2H)-yl)pyrazolo[1,5-a]pyridine-7-carbonitrile], for which the IC50 was > 0.05 µM.

For `C[C@@H]1CN(c2ccc(C#N)n3ncc(F)c23)Cc2c3c(nn21)CCC(C)(N)C3` (stereo partly drawn) [Example I-80, 4-((4R)-9-Amino-4,9-dimethyl-3,4,7,8,9,10-hexahydropyrazino[1,2-b]indazol-2(1H)-yl)-3-fluoropyrazolo[1,5-a]pyridine-7-carbonitrile], the IC50 is > 0.05 µM.

Turning to `C[C@@H]1CN(c2ccc(C#N)n3ncc(F)c23)Cc2c3c(nn21)CN[C@H](CC#N)C3` [Example I-86, 4-((4R,9S)-9-(cyanomethyl)-4-methyl-3,4,7,8,9,10-hexahydropyrido[3',4':3,4]pyrazolo[1,5-a]pyrazin-2(1H)-yl)-3-fluoropyrazolo[1,5-a]pyridine-7-carbonitrile], the IC50 was < 0.05 µM.

Consider `CNC(=O)CN1Cc2nn3c(c2C[C@@H]1C)CN(c1ccc(C#N)n2ncc(F)c12)C[C@H]3C` [Example I-101, 2-((4R,9S)-2-(7-cyanide-3-fluoropyridox and [1,5-a]pyridox-4-base)-4,9-dimethyl-1,2,3,4,9, 10-hydropyridox [3 ', 4 ': 3, 4]pyrazolo [1,5-a]pyrazine-8 (7 H) -yl)-N-methyl acetamide], for which the concentration for half-maximal inhibition (IC50) is > 0.05 µM.

Turning to `C[C@@H]1CN(c2ccc(C#N)n3ncc(F)c23)Cc2c3c(nn21)CN(CC(=O)N(C)C)[C@@H](C)C3` [Example I-102, 2-((4R,9S)-2-(7-cyano-3-fluoropyrazolo[1,5-a]pyridin-4-yl)-4,9-dimethyl-1,2,3,4,9,10-hexahydropyrido[3',4':3,4]pyrazolo[1,5-a]pyrazin-8(7H)-yl)-N,N-dimethylacetamide], the IC50 is < 0.05 µM.
